The target in this test is T1, AXL R499C (Homo sapiens, UniProt P30530, R499C).
T1 construct: purchased Thermo Fisher Scientific (Life Technologies) SelectScreen
Description: SelectScreen LanthaScreen. As to conditions: read-out: % displacement. It is filed as binding. The procedure, abridged:
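Percent values come from Thermo SelectScreen profiling of NU5455, combining activity and binding assays. CSF1R was run in Z'LYTE format at Km app ATP, and CAMK1 in Adapta format with ATP listed at 10.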

T1 sequence (P30530 26-894 R499C): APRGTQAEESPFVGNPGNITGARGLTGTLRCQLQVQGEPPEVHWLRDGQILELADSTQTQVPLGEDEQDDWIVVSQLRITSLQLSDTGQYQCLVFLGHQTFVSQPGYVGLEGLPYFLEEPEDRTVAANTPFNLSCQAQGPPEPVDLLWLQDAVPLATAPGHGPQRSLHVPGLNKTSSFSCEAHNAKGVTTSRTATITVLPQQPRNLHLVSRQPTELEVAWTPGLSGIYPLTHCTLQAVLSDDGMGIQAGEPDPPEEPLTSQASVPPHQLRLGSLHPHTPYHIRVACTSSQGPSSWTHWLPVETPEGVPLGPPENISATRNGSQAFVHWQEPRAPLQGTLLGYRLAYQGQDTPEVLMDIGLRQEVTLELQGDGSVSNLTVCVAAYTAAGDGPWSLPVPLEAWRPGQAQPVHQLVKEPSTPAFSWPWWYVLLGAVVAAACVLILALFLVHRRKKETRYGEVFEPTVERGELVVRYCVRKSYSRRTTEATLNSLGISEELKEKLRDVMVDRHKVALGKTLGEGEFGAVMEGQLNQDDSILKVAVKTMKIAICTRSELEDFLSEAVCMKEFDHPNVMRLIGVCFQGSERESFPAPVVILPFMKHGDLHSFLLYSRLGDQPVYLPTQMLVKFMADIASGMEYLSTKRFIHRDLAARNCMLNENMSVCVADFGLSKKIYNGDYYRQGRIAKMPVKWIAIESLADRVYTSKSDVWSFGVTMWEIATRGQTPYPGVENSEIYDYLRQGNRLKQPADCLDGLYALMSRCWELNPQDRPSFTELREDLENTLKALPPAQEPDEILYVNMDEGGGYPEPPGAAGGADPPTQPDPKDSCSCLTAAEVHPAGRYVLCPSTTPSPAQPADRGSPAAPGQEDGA

`CN(C(=O)CN1CCOCC1)c1ccc2sc3c(-c4cccc5c(=O)cc(N6CC7CCC(C6)O7)oc45)cccc3c2c1` [NU5455]: the inhibition at 1 µM is -2.7%.

The values above are taken from article PMC6934184, “Selective DNA-PKcs inhibition extends the therapeutic index of localized radiotherapy and chemotherapy” (The Journal of Clinical Investigation, 2019).
